Publication PMC7367283, “A PIP2 substitute mediates voltage sensor-pore coupling in KCNQ activation” (Communications Biology, 2020)
Several values for one entry are separate records, joined by “and”; a condition that tells them apart may be missing. Equal entries are not always repeated.

Experiments:
Experiment in all cases: Two-electrode voltage clamp of mutant KCNQ1 in Xenopus oocytes
Format in all cases: cell-based
KCNQ1 R259A = KCNQ1 R259A (Homo sapiens, UniProt P51787, R259A); settings: 10 µM CP1, individual oocytes
Text: (§1) In a previous study, mutation of residues in the predicted PIP2-binding site reduced KCNQ1 currents. CP1 modifies voltage-dependent activation of KCNQ1 channels by shifting the voltage dependence of channel opening, measured as the voltage dependence of the conductance (G–V) relationship, to more negative voltages (Fig. 1c) among other characteristics (see below). We made mutations to the residues around the CP1-interacting pocket as indicated by molecular docking (Fig. 1b), and examined the effects of the mutations on the CP1-induced shift of the G–V relationship. The mutations of the KCNQ1 residues that interact with CP1 in docking simulations reduced the shift of the G–V relationship (Fig. 1c, d), supporting the interaction of these residues with CP1.
(§2) Complementary DNA (cDNA) encoding human KCNQ1 (UniProtKB/Swiss‐Prot under accession no. P51787), KCNQ2 (O43526), KCNQ3 (O43525), KCNE1 (P15382), Kir1.1 (P48048), hERG (Q12809), KV4.2 (Q63881), NaV1.5 (Q14524), NaV β1 (Q07699), CaV1.2 (Q13936), CaV β1a (Q02641), CaV α2/δ1 (P54289), and HCN4 (Q9Y3Q4) were subcloned into oocyte expression vectors, respectively. Site-directed mutations of the KCNQ1 channel were all produced by overlap extension polymerase chain reaction (PCR) with high-fidelity Pfu polymerase (Stratagene, CA). The presence of the desired mutation was verified by sequencing the PCR-amplified regions. All the primer sequences used in this study are available in Supplementary Table 1. The complementary RNA (cRNA) of all these channels and mutations was transcribed in vitro with the T3, T7, or SP6 polymerase mMessage mMachine kit (Invitrogen, Thermo Fisher Scientific, MO).
(§3) The use of Xenopus laevis to obtain oocytes was approved by the Washington University Animal Studies Committee (protocol #20190030). Oocytes were manually dispersed and digested with collagenase (0.5 mg/ml, Sigma-Aldrich, Saint Louis, MO) to remove the follicle cell layer. Stage V or VI oocytes were selected and injected with cRNAs (9.2 ng) of channel or mutations. Especially, to characterize IKs, a mix of cRNAs at a molar ratio 4:1 (KCNQ1:KCNE1) was injected. For KCNQ2/KCNQ3, the molar ratio was 1:1 (KCNQ2:KCNQ3). For sodium channels, a 3:1 molar ratio (β1:NaV1.5) and for calcium channels a weight ratio 1:1:1 (β1:α2/δ1:CaV1.2) was injected, respectively. Injected oocytes were incubated in ND96 solution containing (in mM) 96 NaCl, 2 KCl, 1.8 CaCl2, 1 MgCl2, and 5 HEPES, pH 7.6, supplemented with 2.5 mM Na pyruvate and 1% penicillin–streptomycin, at 18 °C for 3–7 days before recording.
(§4) The whole-oocyte ionic currents were recorded with a GeneClamp 500B amplifier (Axon Instruments, CA) or iTEV90 amplifier (HEKA, Germany) and then sampled at 1 kHz and low-pass-filtered at 2 kHz. The Patchmaster software (HEKA, Germany) was used to acquire data. The Kir1.1 current was recorded with a high K^+ bath solution containing (in mM) 96 KCl, 4 NaCl, 1 CaCl2, 2 MgCl2, and 10 HEPES, pH 7.3–7.4. The HCN4 current was recorded in ND66 solution containing (in mM) 66 NaCl, 32 KCl, 1.8 CaCl2, 1 MgCl2, and 5 HEPES, pH 7.6. All the other potassium channels were recorded in ND96 solution. The currents of CaV1.2 channel were recorded in 40 mM Ba^2+ bath solution containing (in mM) 40 Ba(OH)2, 50 TEA-OH, 2 KOH, and 5 HEPES, adjusted to pH 7.4 with methanesulfonic acid. CP1 (DISODIUM 5-BROMO-2-[9-CHLORO-3-(SULFONATOOXY) NAPHTHO [1,2-B] THIEN-2-YL]-1H-INDOL-3-YL SULFATE, Sigma-Aldrich, MO) and Chromanol 293B (Sigma-Aldrich, MO) were dissolved in bath solutions. All the chemicals were purchased from Sigma-Aldrich. To measure the I–V relations of the Kir1.1 channel, the test voltage was set from −100 to +60 mV for 1 s with 20-mV increments. The test pulses were stepped from a holding potential of 0 mV and then stepped back to 0 mV. The HCN4 currents were recorded by a test pulse between −30 and −140 mV in 10-mV step from a holding potential of −30 mV. […]

KCNQ1 K354A = KCNQ1 K354A (Homo sapiens, UniProt P51787, K354A)
Text: as §1, §2, §3, §4

KCNQ1 W248R = KCNQ1 W248R (Homo sapiens, UniProt P51787, W248R); settings: 10 µM CP1, individual oocytes
Text: as §1, §2, §3, §4

[1] = biological target: KCNQ1 R249A/S253A/K354A/K358A (Homo sapiens, UniProt P51787, K354A/K358A/R249A/S253A)
Text: as §1, §2, §3, §4

KCNQ1 S253A = KCNQ1 S253A (Homo sapiens, UniProt P51787, S253A)
Text: as §1, §2, §3, §4

## O=S(=O)([O-])Oc1c(-c2sc3c(ccc4cccc(Cl)c43)c2OS(=O)(=O)[O-])[nH]c2ccc(Br)cc12.[Na+].[Na+] [CP1, DISODIUM 5-BROMO-2-[9-CHLORO-3-(SULFONATOOXY) NAPHTHO [1,2-B] THIEN-2-YL]-1H-INDOL-3-YL SULFATE]
KCNQ1 R259A
  ∆V1/2: 40.9982 mV and 50.0211 mV and 57.3239 mV and 73.9485 mV
KCNQ1 K354A; 10 µM CP1, -10 mV
  G/Gmax: 1.0000
KCNQ1 K354A; 10 µM CP1, -20 mV
  G/Gmax: 0.9896
KCNQ1 K354A; 10 µM CP1, -30 mV
  G/Gmax: 0.9492
KCNQ1 K354A; 10 µM CP1, -40 mV
  G/Gmax: 0.8838
KCNQ1 K354A; 10 µM CP1, -50 mV
  G/Gmax: 0.7639
KCNQ1 K354A; 10 µM CP1, -60 mV
  G/Gmax: 0.6020
KCNQ1 K354A; 10 µM CP1, -70 mV
  G/Gmax: 0.4417
KCNQ1 K354A; 10 µM CP1, -80 mV
  G/Gmax: 0.3190
KCNQ1 K354A; 10 µM CP1, -90 mV
  G/Gmax: 0.2082
KCNQ1 K354A; 10 µM CP1, -100 mV
  G/Gmax: 0.1212
KCNQ1 K354A; 10 µM CP1, -110 mV
  G/Gmax: 0.0566
KCNQ1 K354A; 10 µM CP1, -120 mV
  G/Gmax: 0.0000
KCNQ1 K354A; 10 µM CP1, individual oocytes
  ∆V1/2: 42.6379 mV and 47.4781 mV and 37.0916 mV and 51.9279 mV and 26.7588 mV
KCNQ1 W248R
  ∆V1/2: 27.0173 mV and 42.5898 mV and 38.6048 mV
[1]; 10 µM CP1, 0 mV
  G/Gmax: 0.6125
[1]; 10 µM CP1, 10 mV
  G/Gmax: 0.7412
[1]; 10 µM CP1, 20 mV
  G/Gmax: 0.8671
[1]; 10 µM CP1, 30 mV
  G/Gmax: 0.9470
[1]; 10 µM CP1, 40 mV
  G/Gmax: 1.0000
[1]; 10 µM CP1, -10 mV
  G/Gmax: 0.4658
[1]; 10 µM CP1, -20 mV
  G/Gmax: 0.3584
[1]; 10 µM CP1, -30 mV
  G/Gmax: 0.2410
[1]; 10 µM CP1, -40 mV
  G/Gmax: 0.1854
[1]; 10 µM CP1, -50 mV
  G/Gmax: 0.1254
[1]; 10 µM CP1, -60 mV
  G/Gmax: 0.1039
[1]; 10 µM CP1, -70 mV
  G/Gmax: 0.0777
[1]; 10 µM CP1, -80 mV
  G/Gmax: 0.0665
[1]; 10 µM CP1, -90 mV
  G/Gmax: 0.0440
[1]; 10 µM CP1, -100 mV
  G/Gmax: 0.0354
[1]; 10 µM CP1, -110 mV
  G/Gmax: 0.0175
[1]; 10 µM CP1, -120 mV
  G/Gmax: 0.0015
[1]; 10 µM CP1, individual oocytes
  ∆V1/2: 21.6716 mV and 20.4143 mV and 21.6154 mV and 29.7699 mV
KCNQ1 S253A; 10 µM CP1, -10 mV
  G/Gmax: 1.0000
KCNQ1 S253A; 10 µM CP1, -20 mV
  G/Gmax: 0.9987
KCNQ1 S253A; 10 µM CP1, -30 mV
  G/Gmax: 0.9693
KCNQ1 S253A; 10 µM CP1, -40 mV
  G/Gmax: 0.9339
KCNQ1 S253A; 10 µM CP1, -50 mV
  G/Gmax: 0.8910
KCNQ1 S253A; 10 µM CP1, -60 mV
  G/Gmax: 0.8327
KCNQ1 S253A; 10 µM CP1, -70 mV
  G/Gmax: 0.7485
KCNQ1 S253A; 10 µM CP1, -80 mV
  G/Gmax: 0.6141
KCNQ1 S253A; 10 µM CP1, -90 mV
  G/Gmax: 0.4531
KCNQ1 S253A; 10 µM CP1, -100 mV
  G/Gmax: 0.2784
KCNQ1 S253A; 10 µM CP1, -110 mV
  G/Gmax: 0.1217
KCNQ1 S253A; 10 µM CP1, -120 mV
  G/Gmax: 0.0000
KCNQ1 S253A; 10 µM CP1, individual oocytes
  ∆V1/2: 62.813 mV and 60.7614 mV and 50.2508 mV and 66.8458 mV
